In patent publication US11135320B2, “Radioligands for pretargeted pet imaging and methods of their therapeutic use” (priority 2015, dated 2021):
Where “and” joins values, the source holds several entries; their conditions need not be identical. Identical values can stand only once.

Key:
[1] = Acute biodistribution of ^64Cu-labeled tetrazine radioligands in healthy mice; format: in vivo, athymic nude mice; conditions: for Large Intestine activity concentration / Small Intestine activity concentration / Stomach activity concentration: contents not removed
Experimental: (§1) Mice were administered ^64Cu-Tz-NOTA (25-30 μCi in 200 μL 0.9% sterile saline) via intravenous tail vein injection. Animals (n=4 per group) were euthanized by CO2(g) asphyxiation at 1, 4, and 24 h after injection. After asphyxiation, tissues were removed, rinsed in water, dried in air for 5 min, weighed, and counted in a gamma counter calibrated for ^64Cu. Counts were converted into activity using a calibration curve generated from known standards. Count data were background- and decay-corrected to the time of injection, and the percent injected dose per gram (% ID/g) for each tissue sample was calculated by normalization to the total activity injected. Contents within the stomach, small intestine, and large intestine were not removed for the measurements.
as §1, with “^64Cu-Tz-PEG7-NOTA” for “^64Cu-Tz-NOTA”
as §1, with “^64Cu-Tz-SarAr” for “^64Cu-Tz-NOTA”
as §1, with “Healthy female athymic nude mice (n=4 per radioligand) were” for “Mice were”, “administered ^64Cu-Tz-PEG7-NOTA or ^64Cu-Tz-SarAr” for “administered ^64Cu-Tz-NOTA”, “vein injection (t=0).” for “vein injection.”, “4, 12,” for “4,”, “injected.” for “injected. Contents within the stomach, small intestine, and large intestine were not removed for the measurements.”

[2] = PET imaging with ^64Cu-labeled tetrazine radioligands in healthy mice; format: in vivo, athymic nude mice
Experimental: All PET imaging experiments were performed on an Inveon PET/CT scanner (Siemens Healthcare Global). Healthy female athymic nude mice (n=4 per radioligand) were administered ^64Cu-Tz-NOTA, ^64Cu-Tz-PEG7-NOTA, or ^64Cu-Tz-SarAr (300-350 μCi in 200 μL 0.9% sterile saline) via intravenous tail vein injection (t=0). Approximately 5 minutes prior to the PET images, mice were anesthetized by inhalation of 2% isoflurane (Baxter Healthcare, Deerfield, Ill.)/oxygen gas mixture and placed on the scanner bed; anesthesia was maintained using 1% isoflurane/gas mixture. Static scans were recorded at various time points after injection with a minimum of 30 million coincident events (10-30 min total scan time). An energy window of 350-700 keV and a coincidence timing window of 6 ns were used. Data were sorted into 2-dimensional histograms by Fourier re-binning, and the images were reconstructed using a two-dimensional ordered subset expectation maximization (2DOSEM) algorithm (16 subsets, 4 iterations) into a 128×128×159 (0.78×0.78×0.80 mm) matrix. The image data was normalized to correct for non-uniformity of response of the PET, dead-time count losses, positron branching ratio, and physical decay to the time of injection but no attenuation, scatter, or partial-volume averaging correction was applied. Activity concentrations (percentage of dose per gram of tissue [% ID/g]) and maximum intensity projections were determined by conversion of the counting rates from the reconstructed images. All of the resulting PET images were analyzed using ASIPro VM™ software.

Row | SMILES | Blood activity concentration ([1]; 1 h p.i.) | Bone activity concentration ([1]; 1 h p.i.) | Heart activity concentration ([1]; 1 h p.i.) | Kidney activity concentration ([1]; 1 h p.i.) | Liver activity concentration ([1]; 1 h p.i.) | Lung activity concentration ([1]; 1 h p.i.) | Muscle activity concentration ([1]; 1 h p.i.) | Spleen activity concentration ([1]; 1 h p.i.) | Large Intestine activity concentration ([1]; 1 h p.i.) | Small Intestine activity concentration ([1]; 1 h p.i.) | Stomach activity concentration ([1]; 1 h p.i.) | Blood activity concentration ([1]; 4 h p.i.) | Bone activity concentration ([1]; 4 h p.i.) | Heart activity concentration ([1]; 4 h p.i.) | Kidney activity concentration ([1]; 4 h p.i.) | Liver activity concentration ([1]; 4 h p.i.) | Lung activity concentration ([1]; 4 h p.i.) | Muscle activity concentration ([1]; 4 h p.i.) | Spleen activity concentration ([1]; 4 h p.i.) | Large Intestine activity concentration ([1]; 4 h p.i.) | also measured
1 | O=C([O-])CN1CCN(CC(=O)[O-])CC(Cc2ccc(NC(=O)CCCC(=O)NCc3ccc(-c4nncnn4)cc3)cc2)N(CC(=O)[O-])CC1.[64Cu+2] (stereo not drawn) [^64Cu-Tz-NOTA] | 0.23 ± 0.01 % ID/g | 0.10 ± 0.03 % ID/g | 0.10 ± 0.02 % ID/g | 0.53 ± 0.09 % ID/g | 1.45 ± 0.39 % ID/g | 0.38 ± 0.06 % ID/g | 0.04 ± 0.02 % ID/g | 0.15 ± 0.05 % ID/g | 11.58 ± 2.19 % ID/g | 3.14 ± 1.47 % ID/g | 0.12 ± 0.04 % ID/g | 0.13 ± 0.01 % ID/g | 0.07 ± 0.04 % ID/g | 0.11 ± 0.02 % ID/g | 0.33 ± 0.07 % ID/g | 0.42 ± 0.13 % ID/g | 0.27 ± 0.08 % ID/g | 0.03 ± 0.02 % ID/g | 0.09 ± 0.02 % ID/g | 10.0±1.3 % ID/g and 10.03 ± 1.33 % ID/g | Small Intestine activity concentration ([1]; 4 h p.i.): 0.17 ± 0.07 % ID/g; Stomach activity concentration ([1]; 4 h p.i.): 0.05 ± 0.03 % ID/g; Blood activity concentration ([1]; 24 h p.i.): 0.07 ± 0.01 % ID/g; Bone activity concentration ([1]; 24 h p.i.): 0.03 ± 0.01 % ID/g; Heart activity concentration ([1]; 24 h p.i.): 0.09 ± 0.01 % ID/g; Kidney activity concentration ([1]; 24 h p.i.): 0.22 ± 0.07 % ID/g; Liver activity concentration ([1]; 24 h p.i.): 0.21 ± 0.06 % ID/g; Lung activity concentration ([1]; 24 h p.i.): 0.21 ± 0.02 % ID/g; Muscle activity concentration ([1]; 24 h p.i.): 0.03 ± 0.03 % ID/g; Spleen activity concentration ([1]; 24 h p.i.): 0.08 ± 0.02 % ID/g; Large Intestine activity concentration ([1]; 24 h p.i.): 1.4±0.7 % ID/g and 1.37 ± 0.65 % ID/g; Small Intestine activity concentration ([1]; 24 h p.i.): 0.10 ± 0.02 % ID/g; Stomach activity concentration ([1]; 24 h p.i.): 0.18 ± 0.11 % ID/g; excretion pathway (PET imaging) [2]: eliminated somewhat sluggishly through the gastrointestinal pathway
2 | O=C(O)CN1CCN(CC(=O)O)CC(Cc2ccc(NC(=S)NCCOCCOCCOCCOCCOCCOCCOCCNC(=O)CCCC(=O)NCc3ccc(-c4nncnn4)cc3)cc2)N(CC(=O)O)CC1.[64Cu] (stereo not drawn) [^64Cu-Tz-PEG7-NOTA] | 0.38 ± 0.14 % ID/g | 0.09 ± 0.06 % ID/g | 0.17 ± 0.02 % ID/g | 1.5±0.2 % ID/g and 1.51 ± 0.24 % ID/g | 0.77 ± 0.11 % ID/g | 0.49 ± 0.11 % ID/g | 0.05 ± 0.01 % ID/g | 0.19 ± 0.01 % ID/g | 6.35 ± 0.69 % ID/g | 0.5 ± 0.26 % ID/g | 0.18 ± 0.06 % ID/g | 0.26 ± 0.14 % ID/g | 0.07 ± 0.02 % ID/g | 0.18 ± 0.03 % ID/g | 1.2±0.4 % ID/g and 1.23 ± 0.39 % ID/g | 0.63 ± 0.2 % ID/g | 0.35 ± 0.13 % ID/g | 0.03 ± 0.02 % ID/g | 0.14 ± 0.02 % ID/g | 4.9±0.7 % ID/g and 4.91 ± 0.71 % ID/g | Small Intestine activity concentration ([1]; 4 h p.i.): 0.3 ± 0.14 % ID/g; Stomach activity concentration ([1]; 4 h p.i.): 0.36 ± 0.25 % ID/g; Blood activity concentration ([1]; 24 h p.i.): 0.08 ± 0.01 % ID/g; Bone activity concentration ([1]; 24 h p.i.): 0.06 ± 0.01 % ID/g; Heart activity concentration ([1]; 24 h p.i.): 0.09 ± 0.01 % ID/g; Kidney activity concentration ([1]; 24 h p.i.): 0.86 ± 0.11 % ID/g; Liver activity concentration ([1]; 24 h p.i.): 0.32 ± 0.11 % ID/g; Lung activity concentration ([1]; 24 h p.i.): 0.17 ± 0.03 % ID/g; Muscle activity concentration ([1]; 24 h p.i.): 0.02 ± 0.01 % ID/g; Spleen activity concentration ([1]; 24 h p.i.): 0.12 ± 0.01 % ID/g; Large Intestine activity concentration ([1]; 24 h p.i.): 0.40 ± 0.15 % ID/g; Small Intestine activity concentration ([1]; 24 h p.i.): 0.10 ± 0.01 % ID/g; Stomach activity concentration ([1]; 24 h p.i.): 0.09 ± 0.02 % ID/g; excretion pathway (PET imaging) [2]: excretion through both the intestines and the kidneys
3 | NC12CNCCNCC(NCc3ccc(CNC(=O)CCCC(=O)NCc4ccc(-c5nncnn5)cc4)cc3)(CNCCNC1)CNCCNC2.[64Cu+2] [^64Cu-Tz-SarAr] | 0.42 ± 0.11 % ID/g | 0.12 ± 0.03 % ID/g | 0.22 ± 0.06 % ID/g | 2.3±0.4 % ID/g and 2.34 ± 0.35 % ID/g | 0.72 ± 0.03 % ID/g | 0.32 ± 0.06 % ID/g | 0.05 ± 0.03 % ID/g | 0.38 ± 0.06 % ID/g | 0.07±0.01 % ID/g | 0.29 ± 0.21 % ID/g | 0.24 ± 0.14 % ID/g | 0.15 ± 0.01 % ID/g | 0.09 ± 0.01 % ID/g | 0.12 ± 0.02 % ID/g | 1.57 ± 0.19 % ID/g | 0.42 ± 0.24 % ID/g | 0.31 ± 0.09 % ID/g | 0.04 ± 0.01 % ID/g | 0.2 ± 0.05 % ID/g | 0.08 ± 0.03 % ID/g | Small Intestine activity concentration ([1]; 4 h p.i.): 0.16 ± 0.03 % ID/g; Stomach activity concentration ([1]; 4 h p.i.): 0.2 ± 0.1 % ID/g; Blood activity concentration ([1]; 24 h p.i.): 0.06 ± 0.01 % ID/g; Bone activity concentration ([1]; 24 h p.i.): 0.08 ± 0.02 % ID/g; Heart activity concentration ([1]; 24 h p.i.): 0.08 ± 0.02 % ID/g; Kidney activity concentration ([1]; 24 h p.i.): 1.26 ± 0.41 % ID/g; Liver activity concentration ([1]; 24 h p.i.): 0.28 ± 0.07 % ID/g; Lung activity concentration ([1]; 24 h p.i.): 0.24 ± 0.06 % ID/g; Muscle activity concentration ([1]; 24 h p.i.): 0.03 ± 0.01 % ID/g; Spleen activity concentration ([1]; 24 h p.i.): 0.21 ± 0.04 % ID/g; Large Intestine activity concentration ([1]; 24 h p.i.): 0.07 ± 0.01 % ID/g; Small Intestine activity concentration ([1]; 24 h p.i.): 0.07 ± 0.01 % ID/g; Stomach activity concentration ([1]; 24 h p.i.): 0.05 ± 0.01 % ID/g; excretion pathway (PET imaging) [2]: cleared quickly and cleanly through the urinary tract
